# Experimental data published in ChEMBL document CHEMBL1770079, “Discovery of small molecule human FPR1 receptor antagonists” (Bioorg Med Chem Lett, 2011).
# Active and inactive are the calls of the source. The rule behind the calls is not given here.
# How the values were obtained:
# fMet-Leu-Phe receptor [1] = molecular target: T1, fMet-Leu-Phe receptor (Homo sapiens, UniProt P21462); assay: Intrinsic activity at FPR1 in human neutrophils assessed as increase in calcium mobilization by FLIPR assay relative to fMLF; format: functional
# T1 sequence (P21462 whole entry): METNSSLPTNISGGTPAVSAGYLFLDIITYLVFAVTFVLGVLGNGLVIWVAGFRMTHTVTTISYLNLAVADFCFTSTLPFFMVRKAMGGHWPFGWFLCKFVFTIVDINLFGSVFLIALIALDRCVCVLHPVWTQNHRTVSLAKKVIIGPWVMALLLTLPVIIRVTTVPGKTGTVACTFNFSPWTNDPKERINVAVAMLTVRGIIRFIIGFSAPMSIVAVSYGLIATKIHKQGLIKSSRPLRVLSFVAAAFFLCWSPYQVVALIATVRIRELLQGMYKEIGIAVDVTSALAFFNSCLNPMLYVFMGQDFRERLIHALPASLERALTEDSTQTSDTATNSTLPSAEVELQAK
# [2] = molecular target: T2, fMet-Leu-Phe receptor (Homo sapiens) (UniProt P21462); assay: Agonist activity at FPR1 in human neutrophils assessed as increase in calcium mobilization by FLIPR assay; format: functional; set-up: concentration or dose not given beside the values; conditions: concentration not given here
# T2 sequence (whole entry): T1 sequence (P21462 whole entry)
# [3] = Antagonist activity at rat FPR1 expressed in HEK293 cells assessed as inhibition of fMLF-stimulated intracellular calcium mobilisation by FLIPR assay; format: functional, cell-based
# [4] = molecular target: T2, fMet-Leu-Phe receptor (Homo sapiens); assay: Antagonist activity at FPR1 in human neutrophils assessed as inhibition of PMA-stimulated neutrophil degranulation after 15 mins by fluorescence assay; format: functional
# fMet-Leu-Phe receptor [5] = molecular target: T1, fMet-Leu-Phe receptor; assay: Antagonist activity at human FPR1 in expressed in HEK293 cells assessed as inhibition of fMLF-stimulated intracellular calcium mobilisation after 5 mins by FLIPR assay; format: functional, cell-based
# [6] = molecular target: T3, fMet-Leu-Phe receptor (Mus musculus) (UniProt P33766); assay: Antagonist activity at mouse FPR1 expressed in HEK293 cells assessed as inhibition of fMLFF-stimulated intracellular calcium mobilisation at 50 uM by FLIPR assay; format: functional, cell-based
# T3 sequence (whole entry): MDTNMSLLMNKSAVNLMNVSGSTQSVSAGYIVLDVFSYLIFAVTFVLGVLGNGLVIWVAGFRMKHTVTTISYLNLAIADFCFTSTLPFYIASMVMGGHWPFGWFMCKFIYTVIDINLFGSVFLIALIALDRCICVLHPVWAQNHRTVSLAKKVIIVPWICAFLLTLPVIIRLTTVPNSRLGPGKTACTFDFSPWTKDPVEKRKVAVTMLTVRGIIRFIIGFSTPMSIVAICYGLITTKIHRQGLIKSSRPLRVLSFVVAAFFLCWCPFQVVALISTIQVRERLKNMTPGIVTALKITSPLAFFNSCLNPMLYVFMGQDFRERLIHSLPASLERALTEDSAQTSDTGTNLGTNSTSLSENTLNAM
# [7] = Solubility of the compound in 0.1 M phosphate buffer; format: physicochemical
# [8] = molecular target: T4, C-X-C chemokine receptor type 2 (Homo sapiens) (UniProt P25025); assay: Antagonist activity at CXCR2 in human neutrophils assessed as inhibition of GROalpha-stimulated intracellular calcium mobilization at 50 uM by FLIPR assay; format: functional, cell-based
# T4 sequence (whole entry): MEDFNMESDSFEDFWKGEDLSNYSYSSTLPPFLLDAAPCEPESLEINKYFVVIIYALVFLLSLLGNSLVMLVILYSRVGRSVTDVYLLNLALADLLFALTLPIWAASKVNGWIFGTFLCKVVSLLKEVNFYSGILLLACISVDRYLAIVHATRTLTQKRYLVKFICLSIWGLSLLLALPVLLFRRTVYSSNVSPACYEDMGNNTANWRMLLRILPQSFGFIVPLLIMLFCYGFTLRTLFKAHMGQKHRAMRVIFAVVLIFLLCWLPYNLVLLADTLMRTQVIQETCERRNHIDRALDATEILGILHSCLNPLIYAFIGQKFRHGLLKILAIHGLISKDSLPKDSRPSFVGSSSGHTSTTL
# [9] = molecular target: T2, fMet-Leu-Phe receptor (Homo sapiens); assay: Agonist activity at FPR1 in human neutrophils assessed as increase in calcium mobilization at 50 uM by FLIPR assay; format: functional
# fMet-Leu-Phe receptor [10] = molecular target: T1, fMet-Leu-Phe receptor; assay: Antagonist activity at FPR1 in human neutrophils assessed as inhibition of fMLF-stimulated calcium mobilization by FLIPR assay; format: functional
# [11] = molecular target: T2, fMet-Leu-Phe receptor (Homo sapiens); assay: Reversible inhibition of FPR1 in human neutrophils assessed as inhibition of fMLF-stimulated calcium mobilisation by FLIPR assay; format: functional
# fMet-Leu-Phe receptor [12] = molecular target: T1, fMet-Leu-Phe receptor; assay: Antagonist activity at FPR1 in human neutrophils assessed as inhibition of fMLF-stimulated degranulation after 15 mins by fluorescence assay; format: functional
# [13] = molecular target: T5, N-formyl peptide receptor 2 (Homo sapiens) (UniProt P25090); assay: Antagonist activity at FPR2 in human neutrophils assessed as inhibition of SHHGtide-stimulated intracellular calcium mobilisation at 50 uM by FLIPR assay; format: functional, cell-based
# T5 sequence (whole entry): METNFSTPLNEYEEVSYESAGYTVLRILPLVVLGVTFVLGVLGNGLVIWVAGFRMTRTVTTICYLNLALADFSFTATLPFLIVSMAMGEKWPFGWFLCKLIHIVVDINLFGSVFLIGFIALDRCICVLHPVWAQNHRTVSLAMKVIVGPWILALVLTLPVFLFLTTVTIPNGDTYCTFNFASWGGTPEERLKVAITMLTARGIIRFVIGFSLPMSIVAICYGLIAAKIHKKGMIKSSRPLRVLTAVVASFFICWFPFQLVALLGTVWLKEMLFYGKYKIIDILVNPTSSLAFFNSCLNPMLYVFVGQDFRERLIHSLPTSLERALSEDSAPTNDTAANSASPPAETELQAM
# [14] = molecular target: T6, C5a anaphylatoxin chemotactic receptor 1 (Homo sapiens) (UniProt P21730); assay: Antagonist activity at C5aR in human neutrophils assessed as inhibition of C5a-stimulated intracellular calcium mobilization at 50 uM by FLIPR assay; format: functional, cell-based
# T6 sequence (whole entry): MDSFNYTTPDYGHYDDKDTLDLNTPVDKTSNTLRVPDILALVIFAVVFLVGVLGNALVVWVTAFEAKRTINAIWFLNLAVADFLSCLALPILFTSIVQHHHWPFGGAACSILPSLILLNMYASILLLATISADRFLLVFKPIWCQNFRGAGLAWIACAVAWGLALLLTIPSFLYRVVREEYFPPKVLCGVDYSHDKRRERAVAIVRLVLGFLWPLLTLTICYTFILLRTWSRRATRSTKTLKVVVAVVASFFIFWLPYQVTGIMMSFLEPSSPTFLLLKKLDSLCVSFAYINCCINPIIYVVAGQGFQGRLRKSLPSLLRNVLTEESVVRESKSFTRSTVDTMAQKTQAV
# THP-1 = assay: Cytotoxicity against human THP1 cells assessed as cell viability after 24 hrs by Alamar blue assay; format: cell-based; conditions: THP-1, 24 h
# fMet-Leu-Phe receptor [15] = molecular target: T1, fMet-Leu-Phe receptor; assay: Displacement of [3H]fMLF from human FPR1 expressed in CHO cells by scintillation counting; format: cell-based
# [16] = Intrinsic clearance in human microsomes; format: ADME, Microsome
# fMet-Leu-Phe receptor [17] = molecular target: T1, fMet-Leu-Phe receptor; assay: Antagonist activity at FPR1; format: functional
# [18] = Chemical stability of the compound assessed as half life; format: physicochemical
# fMet-Leu-Phe receptor [19] = molecular target: T7, fMet-Leu-Phe receptor (Mus musculus, UniProt P33766); assay: Antagonist activity at mouse FPR1 expressed in HEK293 cells assessed as inhibition of fMLFF-stimulated intracellular calcium mobilisation by FLIPR assay; format: functional, cell-based
# T7 sequence (P33766 whole entry): T3 sequence (whole entry)
# Hepatocyte = assay: Intrinsic clearance in Sprague-Dawley rat hepatocytes; format: ADME, cell-based, Liver
smiles,measurement,setting,value
CSCCC(NC(=O)c1ccccc1O)c1nc2ccccc2[nH]1 (centres undefined),IC50,fMet-Leu-Phe receptor [1],3.98 µM
CSCCC(NC(=O)c1ccccc1)c1nc2ccccc2n1Cc1ccccc1 (centres undefined),IC50,fMet-Leu-Phe receptor [1],2.51 µM
same,inhibition,[2],< 25%
Cc1cccc(C(NC(=O)c2ccccc2O)C(=O)Nc2c(C)cccc2C)c1C (centres undefined),IC50,fMet-Leu-Phe receptor [1],0.0794 µM
CSCCC(NC(=O)c1ccccc1)c1nc2ccccc2n1Cc1ccc(C#N)cc1 (centres undefined),IC50,fMet-Leu-Phe receptor [1],0.316 µM
same,inhibition,[2],< 25%
Cc1cccc(C)c1NC(=O)C(NC(=O)c1ccccc1O)C1CCCCC1 (centres undefined),IC50,fMet-Leu-Phe receptor [1],0.794 µM
CCOc1ccc2oc(C(=O)NC(CCSC)c3nc4ncncc4[nH]3)c(C)c2c1 (centres undefined),IC50,fMet-Leu-Phe receptor [1],5.01 µM
same,inhibition,[2],< 25%
CCOc1ccc2oc(C(=O)NC(CCSC)c3nc4ccccc4[nH]3)c(C)c2c1 (centres undefined),IC50,fMet-Leu-Phe receptor [1],0.501 µM
same,IC50,[3],10 µM
same,inhibition,[4],< 25%
same,IC50,fMet-Leu-Phe receptor [5],3.16 µM
same,inhibition,[6],< 25%
same,solubility,[7],17 µM
same,inhibition,[8],< 25%
same,inhibition,[9],< 25%
same,IC50,fMet-Leu-Phe receptor [10],0.501 µM
same,inhibition,[11],Active
same,IC50,fMet-Leu-Phe receptor [12],0.158 µM
same,inhibition,[13],< 25%
same,inhibition,[14],< 25%
same,IC50,THP-1,100 µM
same,IC50,fMet-Leu-Phe receptor [15],0.0316 µM
Cc1cccc(C)c1NC(=O)C(NC(=O)c1ccccc1O)c1ccccc1 (centres undefined),IC50,fMet-Leu-Phe receptor [1],1.26 µM
CCC[C@H](NC(=O)c1oc2ccc(OCC)cc2c1C)c1nc2ccccc2[nH]1,IC50,fMet-Leu-Phe receptor [1],1 µM
CSCCC(NC(=O)c1ocnc1C)c1nc2ccccc2[nH]1 (centres undefined),IC50,fMet-Leu-Phe receptor [1],10 µM
CSCCC(NC(=O)c1ccc(C)cc1)c1nc2ccccc2[nH]1 (centres undefined),IC50,fMet-Leu-Phe receptor [1],10 µM
CCOc1ccc2oc(C(=O)NC(CS(C)(=O)=O)c3nc4ccccc4[nH]3)c(C)c2c1 (centres undefined),IC50,fMet-Leu-Phe receptor [1],10 µM
same,microsomal CLint,[16],3 µL/min/mg
CSCCC(NC(=O)c1cnccn1)c1nc2ccccc2[nH]1 (centres undefined),IC50,fMet-Leu-Phe receptor [1],10 µM
O=C(NC(C(=O)NC1CCCCC1)c1ccc(Cl)cc1)c1ccccc1O (centres undefined),IC50,fMet-Leu-Phe receptor [1],2.51 µM
CCOc1ccc2oc(C(=O)N[C@@H](CSC)c3nc4ccccc4[nH]3)c(C)c2c1,IC50,fMet-Leu-Phe receptor [1],> 25.1 µM
CCOc1ccc2oc(C(=O)N[C@H](CSC)c3nc4ccccc4[nH]3)c(C)c2c1,IC50,fMet-Leu-Phe receptor [1],0.631 µM
CC(C)C(C(=O)O)N1C(=O)/C(=C2/C(=O)N(C)c3ccccc32)SC1=S (centres undefined),IC50,fMet-Leu-Phe receptor [17],5.01 µM
CSCCC(NC(=O)C1CCCCC1)c1nc2ccccc2[nH]1 (centres undefined),IC50,fMet-Leu-Phe receptor [1],2.51 µM
Cc1ccc(C(NC(=O)c2ccccc2O)C(=O)Nc2c(C)cccc2C)s1 (centres undefined),IC50,fMet-Leu-Phe receptor [1],0.316 µM
same,IC50,[3],1.26 µM
same,microsomal CLint,[16],43 µL/min/mg
same,inhibition,[4],< 25%
same,IC50,fMet-Leu-Phe receptor [5],1.58 µM
same,half-life,[18],> 10.8 days
same,solubility,[7],68 µM
same,inhibition,[8],< 25%
same,inhibition,[9],< 25%
same,IC50,fMet-Leu-Phe receptor [19],25.1 µM
same,IC50,fMet-Leu-Phe receptor [10],0.398 µM
same,inhibition,[11],Active
same,IC50,fMet-Leu-Phe receptor [12],0.398 µM
same,inhibition,[13],< 25%
same,CL,Hepatocyte,70 µL/min
same,inhibition,[14],< 25%
same,IC50,THP-1,79.4 µM
same,IC50,fMet-Leu-Phe receptor [15],0.1 µM
